Consider 7 molecules from ChEMBL document CHEMBL1141951, “Anti-malarial activity of Baylis-Hillman adducts from substituted 2-chloronicotinaldehydes” (Bioorg Med Chem Lett, 2005).

The term IC50 denotes the concentration at which inhibition is half-maximal. Broadly, the IC90 is the point of the concentration-response curve where the effect stands at 90%. Low readings indicate an effect from little substance, high ones a need for much substance.

Type in all cases: functional, organism-based
Test [1] deals with Plasmodium falciparum. Put plainly: Antimalarial activity as growth inhibition after 48 hrs against chloroquine-resistant Plasmodium falciparum FDL-NG.
The subject of test [2] is Plasmodium falciparum. Put plainly: Antimalarial activity as reduced schizont maturation against chloroquine-sensitive Plasmodium falciparum FDL-B after 24 hrs.
Test [3] has as its system Plasmodium falciparum. Put plainly: Antimalarial activity as reduced schizont maturation after 24 hrs against chloroquine-resistant Plasmodium falciparum FDL-NG.
Test [4] has as its system Plasmodium falciparum. Put plainly: Antimalarial activity as growth inhibition after 48 hrs against chloroquine-sensitive Plasmodium falciparum FDL-B.

Values after ≈ are worked out from the molar mass of the structure shown.

Consider `C=C(C#N)C(O)c1cc(C)cnc1Cl` (centres undefined), for which the concentration for half-maximal inhibition (IC50) in the test on Plasmodium falciparum [1] was 10.5 µg/mL (≈ 50.3 µM); in the test on Plasmodium falciparum [2], 1.25 µg/mL (≈ 5.99 µM); with Plasmodium falciparum [3], 22.5 µg/mL (≈ 108 µM); in the test on Plasmodium falciparum [4] it was 1.3 µg/mL (≈ 6.23 µM).

As for `C=C(C(=O)OC)C(O)c1cc(-c2ccccc2)cnc1Cl` (centres undefined), the IC50 in the test on Plasmodium falciparum [1] came out at 10.8 µg/mL (≈ 35.4 µM); with Plasmodium falciparum [2], 45 µg/mL (≈ 148 µM); in the test with Plasmodium falciparum [3] it was 5 µg/mL (≈ 16.5 µM); in the test on Plasmodium falciparum [4] it was 115 µg/mL (≈ 379 µM).

With `C=C(C#N)C(O)c1ccc(C(=O)OC)nc1Cl` (centres undefined), the IC50 in the test with Plasmodium falciparum [1] came out at 6.75 µg/mL (≈ 26.7 µM); in the test on Plasmodium falciparum [2] it was 3.4 µg/mL (≈ 13.5 µM); in the test on Plasmodium falciparum [3] it was 5.75 µg/mL (≈ 22.8 µM); in the test on Plasmodium falciparum [4] it was 7 µg/mL (≈ 27.7 µM).

Take `C=C(C(=O)OC)C(O)c1cc(C)cnc1Cl` (centres undefined): the IC50 is 5.75 µg/mL (≈ 23.8 µM) in the test with Plasmodium falciparum [1], 18 µg/mL (≈ 74.5 µM) with Plasmodium falciparum [2], 3.05 µg/mL (≈ 12.6 µM) with Plasmodium falciparum [3] and 28.5 µg/mL (≈ 118 µM) in the test on Plasmodium falciparum [4]. Also, the values for the IC90 in the test with Plasmodium falciparum [1], in the test on Plasmodium falciparum [2] and with Plasmodium falciparum [3] were 27.5 µg/mL (≈ 114 µM), 32 µg/mL (≈ 132 µM) and 7 µg/mL (≈ 29 µM), respectively.

Regarding `C=C(C#N)C(O)c1cc(CC)cnc1Cl` (centres undefined), the IC50 was found to be 5.5 µg/mL (≈ 24.7 µM) with Plasmodium falciparum [1], 1.8 µg/mL (≈ 8.08 µM) in the test with Plasmodium falciparum [2], 2.5 µg/mL (≈ 11.2 µM) with Plasmodium falciparum [3] and 4 µg/mL (≈ 18 µM) in the test with Plasmodium falciparum [4].

Turning to `C=C(C#N)C(O)c1cc(-c2ccccc2)cnc1Cl` (centres undefined), the IC50 in the test on Plasmodium falciparum [1] was determined as 2.2 µg/mL (≈ 8.13 µM); in the test with Plasmodium falciparum [2], 3.6 µg/mL (≈ 13.3 µM); in the test with Plasmodium falciparum [3] it was 0.9 µg/mL (≈ 3.32 µM); in the test on Plasmodium falciparum [4], 8 µg/mL (≈ 29.6 µM).

Consider `CCN(CC)CCCC(C)Nc1ccnc2cc(Cl)ccc12` (centres undefined) [CHLOROQUINE], for which the IC90 with Plasmodium falciparum [2] was determined as 0.018 µg/mL (≈ 0.0563 µM); in the test with Plasmodium falciparum [4], 0.02 µg/mL (≈ 0.0625 µM).
